Assay results from patent US5137811A, “Method for diagnosing periodontal diseases with a substrate specific for aminopeptidase activity of periodontopathic bacteria” (Sunstar Kabushiki Kaisha, priority 1986, dated 1992).

How the values were obtained:
[1] = system: B. gingivalis; experiment: Hydrolytic activity of cell suspension on aminopeptidase substrates (Experiment 2); format: cell-based; conditions: five strains, Table 2
Method: (§1) The strains of Treponema were anaerobically cultivated using TYGVS media at 37° C. for 7 days, while other bacterial strains were cultivated using brain heart infusion broth at 37° C. for 48 to 72 hours. Each culture was diluted to obtain a bacterial cell suspension, the absorption at 660 nm of which was 1.0.
(§2) Substrate compounds for aminopeptidase enzyme having various color developing groups derived from β-naphthylamine were dissolved in 0.1M Tris-HCl buffer (pH 7.0) at the concentration of 0.2 mM to obtain substrate solutions.
(§3) To the substrate solution (1.5 ml) was added the above cell suspension (0.3 ml) and reacted at 37° C. for 60 minutes. After completion of the reaction, a coloring reagent [prepared by dissolving diazonium salt of Garnet GBC in 1M acetate buffer (containing 10% Tween 20, pH: 4.2) at the concentration of 0.5 mg/ml] was added and, after 15 minutes, the absorption at 525 nm was determined with a spectrophotometer.
(§4) On the basis of the average amount of released β-naphthylamine in each strain, the hydrolytic activity was expressed as follows: […]
(§5) According to the same manner as described in Experiment 1, periodontopathic bacteria specific aminopeptidase activity was tested by using four strains of Treponema denticola, five strains of B. gingivalis, three strains of B. intermedius, two strains of B. melaninogenicus, two strains of Actinomyces israelli, four strains of Actinobacillus actinomycetemcomitans and three strains of Fusobacterium nucleatum. Abbreviations used in Table 2 mean the following substrate compounds.

[2] = system: Actinomyces israelli; experiment: as above; format: cell-based; conditions: two strains, Table 2
Method: as §1, §2, §3, §4, §5

[3] = system: B. corporis; experiment: as above; format: cell-based; conditions: Table 2
Method: as §1, §2, §3, §4, §5

[4] = system: B. denticola; experiment: as above; format: cell-based; conditions: Table 2
Method: as §1, §2, §3, §4, §5

[5] = system: B. intermedius; experiment: as above; format: cell-based; conditions: three strains, Table 2
Method: as §1, §2, §3, §4, §5

[6] = system: Actinobacillus actinomycetemcomitans; experiment: as above; format: cell-based; conditions: four strains, Table 2
Method: as §1, §2, §3, §4, §5

[7] = system: Treponema denticola; experiment: as above; format: cell-based; conditions: four strains, Table 2
Method: as §1, §2, §3, §4, §5

[8] = system: B. melaninogenicus; experiment: as above; format: cell-based; conditions: two strains, Table 2
Method: as §1, §2, §3, §4, §5

[9] = system: Fusobacterium nucleatum; experiment: as above; format: cell-based; conditions: three strains, Table 2
Method: as §1, §2, §3, §4, §5

[10] = system: Bacteroides gingivalis; experiment: Hydrolytic activity of oral anaerobe cell suspension on aminopeptidase substrates (Experiment 1); format: cell-based; conditions: five strains, substrate 0.2 mM, pH 7.0, 37° C., 60 minutes, Table 1
Method: (§6) Oral anaerobes, i.e., four strains of Treponema denticola, five strains of B. gingivalis, four strains of Actinobacillus actinomycetemcomitans, four strains of Capnocytophaga sp. and three strains of Fusobacterium nucleatum were tested for hydrolytic activity to the substrate of aminopeptidase enzyme as follows.
as §1, §2, §3, §4

[11] = system: Actinobacillus actinomycetemcomitans; experiment: as above; format: cell-based; conditions: four strains, substrate 0.2 mM, pH 7.0, 37° C., 60 minutes, Table 1
Method: as §6, §1, §2, §3, §4

[12] = system: Capnocytophaga sp.; experiment: as above; format: cell-based; conditions: four strains, substrate 0.2 mM, pH 7.0, 37° C., 60 minutes, Table 1
Method: as §6, §1, §2, §3, §4

[13] = system: Treponema denticola; experiment: as above; format: cell-based; conditions: four strains, substrate 0.2 mM, pH 7.0, 37° C., 60 minutes, Table 1
Method: as §6, §1, §2, §3, §4

[14] = system: Fusobacterium nucleatum; experiment: as above; format: cell-based; conditions: three strains, substrate 0.2 mM, pH 7.0, 37° C., 60 minutes, Table 1
Method: as §6, §1, §2, §3, §4

[15] = system: periodontopathic bacteria specific aminopeptidase activity; experiment: Hydrolytic activity of saliva supernatant (Experiment 7); format: biochemical; conditions: 37° C. for 4 hours, Table 7
Method: Specimens of gingival crevicular fluid were collected with paper points from five subjects who were considered to be healthy from their clinical state, six subjects with gingivitis and six subjects with periodontitis. Each specimen was dispersed in Ringer's solution (1.5 ml), and the relative amount of spirochete to total bacteria: [formula] was determined with a phase contrast microscope. Further, the Ringer's solution (0.3 ml) was tested for hydrolytic activity using the substrate solution prepared in the same manner as described in Experiment 1. As substrates, there were used compounds of the formula [1], i.e., N-benzoylvalyl-glycyl-arginine-β-naphthylamide (BzVGR) and N-carbobenzoxy-valyl-glycyl-arginine-β-naphthylamide (CxVGR) were used.
(§7) A saliva mixture was collected from a group consisting of ten healthy subjects and centrifuged to obtain a supernatant. Likewise, centrifuged supernatants were obtained from a group of ten subjects with adult periodontitis and a group of four localized juvenile periodontitis. The supernatant was used as a specimen and its hydrolytic activity was determined according to the same manner as described in Experiment 4 except that the reaction was carried out at 37° C. for 4 hours. As the substrates, there were used N-carbobenzoxy-valyl-glycyl-arginine-p-nitrophenol (CxVGR-pNP), N-carbobenzoxy-valyl-glycylarginine-4-methoxy-2-naphthylamide (CxVGR-4NA) and N-carbobenzoxy-valyl-glycyl-arginine-β-naphthylamide (CxVGR-βNA). Color was developed by using lN sodium hydroxide for CxVGR-pNP and Fast Blue BB for CxVGR-4NA and CxVGR-βNA.

[16] = system: periodontopathic bacteria specific aminopeptidase activity; experiment: Hydrolytic activity of saliva supernatant, substrates alone or in combination (Experiment 9); format: biochemical; conditions: 37° C. for 4 hours, Table 9
Method: as §7
According to the same manner as described in Experiment 7, hydrolytic activity was tested by using N-carbobenzoxy-valyl-glycyl-arginine-β-naphthylamide (CxVGR-βNA), N-benzoyl-arginyl-glycyl-phenylalanyl-proline-β-naphthylamide (BzRGFP-βNA), N-carbobenzoxy-valyl-glycylarginine-p-nitrophenol (CxVGR-pNP) and N-benzoyl-arginylglycyl-phenylalanyl-proline-p-nitrophenol (BzRGFP-pNP) alone or in combination as the substrates.

[17] = Localized juvenile periodontitis subjects

C[C@H](N)C(=O)Nc1ccc2ccccc2c1 [A, alanine-β-naphthylamide, reference compound]
+++ (release amount≥40 nmol/ml): hydrolytic activity (average amount of released β-naphthylamine) [12]
- (release amount<5 nmol/ml): hydrolytic activity (average amount of released β-naphthylamine) [1] | hydrolytic activity (average amount of released β-naphthylamine) [2] | hydrolytic activity (average amount of released β-naphthylamine) [3] | hydrolytic activity (average amount of released β-naphthylamine) [4] | hydrolytic activity (average amount of released β-naphthylamine) [5] | hydrolytic activity (average amount of released β-naphthylamine) [6] | hydrolytic activity (average amount of released β-naphthylamine) [7] | hydrolytic activity (average amount of released β-naphthylamine) [8] | hydrolytic activity (average amount of released β-naphthylamine) [9] | hydrolytic activity (average amount of released β-naphthylamine) [10] | hydrolytic activity (average amount of released β-naphthylamine) [11] | hydrolytic activity (average amount of released β-naphthylamine) [13] | hydrolytic activity (average amount of released β-naphthylamine) [14]

COc1cc(NC(=O)[C@H](CCCNC(=N)N)NC(=O)CNC(=O)[C@@H](NC(=O)OCc2ccccc2)C(C)C)cc2ccccc12 [CxVGR-4NA, N-carbobenzoxy-valyl-glycylarginine-4-methoxy-2-naphthylamide]
32.3 ± 8.9 nmol/mL: hydrolytic activity [15, 17]
18.0 ± 10.8 nmol/mL: hydrolytic activity ([15]; Healthy subjects)
34.6 ± 8.9 nmol/mL: hydrolytic activity ([15]; Adult Periodontitis subjects)

NCC(=O)Nc1ccc2ccccc2c1 [G, glycine-β-naphthylamide, reference compound]
+ (10 ≤release amount<20 nmol/ml): hydrolytic activity (average amount of released β-naphthylamine) [12]
- (release amount<5 nmol/ml): hydrolytic activity (average amount of released β-naphthylamine) [1] | hydrolytic activity (average amount of released β-naphthylamine) [2] | hydrolytic activity (average amount of released β-naphthylamine) [3] | hydrolytic activity (average amount of released β-naphthylamine) [4] | hydrolytic activity (average amount of released β-naphthylamine) [5] | hydrolytic activity (average amount of released β-naphthylamine) [6] | hydrolytic activity (average amount of released β-naphthylamine) [7] | hydrolytic activity (average amount of released β-naphthylamine) [8] | hydrolytic activity (average amount of released β-naphthylamine) [9] | hydrolytic activity (average amount of released β-naphthylamine) [10] | hydrolytic activity (average amount of released β-naphthylamine) [11] | hydrolytic activity (average amount of released β-naphthylamine) [13] | hydrolytic activity (average amount of released β-naphthylamine) [14]

NCCCC[C@H](N)C(=O)Nc1ccc2ccccc2c1 [K, lysine-β-naphthylamide, reference compound]
- (release amount<5 nmol/ml): hydrolytic activity (average amount of released β-naphthylamine) [1] | hydrolytic activity (average amount of released β-naphthylamine) [2] | hydrolytic activity (average amount of released β-naphthylamine) [3] | hydrolytic activity (average amount of released β-naphthylamine) [4] | hydrolytic activity (average amount of released β-naphthylamine) [5] | hydrolytic activity (average amount of released β-naphthylamine) [6] | hydrolytic activity (average amount of released β-naphthylamine) [7] | hydrolytic activity (average amount of released β-naphthylamine) [8] | hydrolytic activity (average amount of released β-naphthylamine) [9] | hydrolytic activity (average amount of released β-naphthylamine) [10] | hydrolytic activity (average amount of released β-naphthylamine) [11] | hydrolytic activity (average amount of released β-naphthylamine) [13] | hydrolytic activity (average amount of released β-naphthylamine) [14]
+++ (release amount≥40 nmol/ml): hydrolytic activity (average amount of released β-naphthylamine) [12]

N=C(N)NCCC[C@H](N)C(=O)Nc1ccc2ccccc2c1 [R, arginine-β-naphthylamide, reference compound]
- (release amount<5 nmol/ml): hydrolytic activity (average amount of released β-naphthylamine) [1] | hydrolytic activity (average amount of released β-naphthylamine) [2] | hydrolytic activity (average amount of released β-naphthylamine) [3] | hydrolytic activity (average amount of released β-naphthylamine) [4] | hydrolytic activity (average amount of released β-naphthylamine) [5] | hydrolytic activity (average amount of released β-naphthylamine) [6] | hydrolytic activity (average amount of released β-naphthylamine) [7] | hydrolytic activity (average amount of released β-naphthylamine) [8] | hydrolytic activity (average amount of released β-naphthylamine) [9] | hydrolytic activity (average amount of released β-naphthylamine) [10] | hydrolytic activity (average amount of released β-naphthylamine) [11] | hydrolytic activity (average amount of released β-naphthylamine) [13] | hydrolytic activity (average amount of released β-naphthylamine) [14]
+++ (release amount≥40 nmol/ml): hydrolytic activity (average amount of released β-naphthylamine) [12]

N-benzoyl-arginylglycyl-phenylalanyl-proline-p-nitrophenol [BzRGFP-pNP]
25.6 ± 8.4 nmol/mL: hydrolytic activity ([16]; Adult Periodontitis subjects)
21.8 ± 7.8 nmol/mL: hydrolytic activity [16, 17]
13.3 ± 4.9 nmol/mL: hydrolytic activity ([16]; Healthy subjects)

N-carbobenzoxy-valyl-glycyl-arginine-p-nitrophenol [CxVGR-pNP]
32.5 ± 9.6 nmol/mL: hydrolytic activity [15, 17]
17.0 ± 11.4 nmol/mL: hydrolytic activity ([15]; Healthy subjects)
28.8 ± 9.1 nmol/mL: hydrolytic activity [16, 17]
14.0 ± 7.9 nmol/mL: hydrolytic activity ([16]; Healthy subjects)
34.0 ± 9.7 nmol/mL: hydrolytic activity ([15]; Adult Periodontitis subjects)
33.5 ± 11.5 nmol/mL: hydrolytic activity ([16]; Adult Periodontitis subjects)
